Molecules are shown by their SMILES.

This test has as its target T1, Carboxypeptidase A1 (Bos taurus, UniProt P00730).
T1 sequence (P00730 whole entry): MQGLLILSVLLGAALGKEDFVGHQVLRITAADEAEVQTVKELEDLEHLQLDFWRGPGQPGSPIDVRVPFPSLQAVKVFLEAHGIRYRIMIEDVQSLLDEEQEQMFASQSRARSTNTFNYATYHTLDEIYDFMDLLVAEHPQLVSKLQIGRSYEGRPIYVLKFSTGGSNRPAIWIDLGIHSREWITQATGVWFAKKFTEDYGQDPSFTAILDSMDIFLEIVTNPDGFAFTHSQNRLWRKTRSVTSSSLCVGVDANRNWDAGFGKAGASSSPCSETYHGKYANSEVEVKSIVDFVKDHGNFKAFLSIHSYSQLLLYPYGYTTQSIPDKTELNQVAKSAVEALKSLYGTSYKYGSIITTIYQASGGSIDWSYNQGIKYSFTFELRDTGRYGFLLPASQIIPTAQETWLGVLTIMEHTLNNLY
Description: Inhibition of bovine carboxypeptidase A (CPA) using hippuryl-L-phenylalanine (Hipp-L-Phe) as a substrate.
Usually Ki stands for the dissociation constant of the complex between target and ligand, obtained from inhibition or displacement. As for `O=C(O)C(CS)NCc1ccccc1` (stereo not given), the affinity corresponds to a Ki of 270 nM. On to `O=C(O)[C@H](CS)NCc1ccccc1`, for which the Ki stood at 33000 nM.

Turning to `CCNC(CS)C(=O)O` (stereo not given), the affinity corresponds to a Ki of 1400 nM. With `CCCNC(CS)C(=O)O` (stereo not given) the figure was 5600 nM; with `O=C(O)C(CS)NCC1CCCCC1` (stereo not given), 9400 nM; with `N[C@H](CS)C(=O)O`, 2300 nM. Consider `O=C(O)[C@@H](CS)NCCc1ccccc1`, for which the Ki is 55 nM. Against the preceding compound, the Ki is about 42-fold lower. For `O=C(O)C(CS)CCCc1ccccc1` (stereo not given) the value was 1350 nM; for `CC(C)CNC(CS)C(=O)O` (stereo not given), 7500 nM.

In the case of `O=C(O)[C@@H](CS)NC1CCCCC1`, the Ki turned out to be 2900 nM. For `O=C(O)C(CS)CCc1ccccc1` (stereo not given) the value was 2100 nM; for `O=C(O)[C@H](CS)NCCc1ccccc1`, 610 nM. `O=C(O)C(CS)NC1CCCCC1` (stereo not given) showed a Ki of 9600 nM.

For `O=C(O)[C@H](CS)NC1CCCCC1`, the Ki was 7900 nM. `COc1ccc(CNC(CS)C(=O)O)cc1` (stereo not given) came in with a Ki of 850 nM. For `O=C(O)C(CS)NCc1cccc2ccccc12` (stereo not given) the value was 810 nM; for `O=C(O)C(CS)NCCCc1ccccc1` (stereo not given), 1300 nM; for `O=C(O)C(CS)CCCCc1ccccc1` (stereo not given), 1300 nM. `CC(C)N[C@H](CS)C(=O)O` returned an inhibitory constant (Ki) of 560 nM.

Take `CC(C)CC(CS)C(=O)O` (stereo not given): affinity was put at a Ki of 160 nM.

In the case of `CNC(CS)C(=O)O` (stereo not given), the inhibition constant Ki was 2400 nM. This Ki lies about 15-fold higher than the previous one. `O=C(O)[C@@H](CS)NCc1ccccc1` showed a Ki of 190 nM. The compound `CC(C)NC(CS)C(=O)O` (stereo not given) returned a Ki of 1100 nM. `CC(C)N[C@@H](CS)C(=O)O` showed a Ki of 2900 nM. Compared with the last compound, the Ki is about 2.6-fold higher. In turn, `O=C(O)C(CS)NCc1ccc2ccccc2c1` (stereo not given) displayed a Ki of more than 500000 nM.

Compound `O=C(O)C(CS)NCCc1ccccc1` (stereo not given) showed a Ki of 65 nM. This counts as double-digit nanomolar. For the compound `CN(Cc1ccccc1)C(CS)C(=O)O` (stereo not given), the affinity, expressed as Ki, was 12000 nM.

In turn, `O=C(O)C(CS)Nc1ccccc1` (stereo not given) came in with a Ki of 5500 nM. With `O=C(O)C(CS)Cc1ccccc1` (stereo not given) the figure was 10 nM; with `N[C@@H](CS)C(=O)O` [CYSTEINE], 350000 nM.

For the origin of these results see ChEMBL document CHEMBL1135722, “Cysteine derivatives as inhibitors for carboxypeptidase A: synthesis and structure-activity relationships” (J Med Chem, 2002).
